These results are taken from patent publication US20140308733A1, “METHOD FOR INDUCING GERMINATION OF SPORE FORMING BACTERIUM” (CALPIS CO., LTD., priority 2011, published 2014).

The assay deals with Bacillus subtilis C-3102 (FERM BP-1096). Nature of the assay: Germination induction by ferulic acid, vanillic acid or p-coumaric acid at 300 ppm, turbidity change (Example 3). The class given is cell-based. Particulars: for turbidity (630 nm): 37° C., 150 rpm. How it is done:
In each 500 mL of distilled water heated to 70° C. was added 0.3 g of ferulic acid, vanillic acid, or p-coumaric acid. After dissolving with stirring using a stirring rod with a propeller, filtration sterilization (0.45 μm filter) was conducted to prepare each 600 ppm-solution.
Next, 500 μL aliquots of bacterial suspension of Bacillus subtilis C-3102 (FERM BP-1096) prepared by a similar method as in Example 1 were mixed with 500 μL of each of the ferulic acid, vanillic acid, and p-coumaric acid solutions, and the mixtures were adjusted to 300 ppm of ferulic acid, vanillic acid, or p-coumaric acid concentration. Defining the time point of mixing as the reaction initiation (0 min), and continuing shaking (150 rpm) at 37° C., the turbidity (630 nm) was measured at 10, 20, 30, 40, 50, 60, 90, 120, and 180 min after the reaction initiation.

On to `O=C(O)/C=C/c1ccc(O)cc1` [p-Coumaric acid, p-coumaric acid], for which the “germination confirmed by turbidity decrease” value was “decreased, thereby to confirm germination”. In addition, the “turbidity (630 nm)” value (0 min after reaction initiation) is reported as 0.545. Also, the “turbidity (630 nm)” value (10 min after reaction initiation) turned out to be 0.523. The “turbidity (630 nm)” value (20 min after reaction initiation) came to 0.506. Under “30 min after reaction initiation”, the “turbidity (630 nm)” value was determined as 0.488. Further, under “40 min after reaction initiation”, the “turbidity (630 nm)” value is recorded as 0.475. Also, the “turbidity (630 nm)” value (50 min after reaction initiation) was found to be 0.460. Further, the “turbidity (630 nm)” value (60 min after reaction initiation) amounted to 0.420. For the setting “90 min after reaction initiation”, the “turbidity (630 nm)” value stood at 0.392. For the same compound, the “turbidity (630 nm)” value (120 min after reaction initiation) is given as 0.360. The “turbidity (630 nm)” value (180 min after reaction initiation) is on record as 0.319.
